Several values for one entry are separate records, joined by “and”; a condition that tells them apart may be missing. Equal entries are not always repeated. Values belong to the compound of their own block, whether it stands above or below them.
Experiments:
PC-3 = experiment: In vitro inhibitory concentration against cell proliferation in human PC-3 (prostate adenocarcinoma) tumor cells; type: functional, cell-based
HeLa [1] = experiment: In vitro inhibitory concentration against cell proliferation in human HeLa (cervical adenocarcinoma) tumor cells; type: functional, cell-based
HCT-116 = experiment: In vitro inhibitory concentration against cell proliferation in human HCT116 (colon carcinoma) tumor cells; type: functional, cell-based
SK-OV-3 = experiment: In vitro inhibitory concentration against cell proliferation in human SK-OV-3 (ovarian adenocarcinoma) tumor cells; type: functional, cell-based
A-375 [2] = experiment: In vitro inhibitory concentration against cell proliferation in human A375 (malignant melanoma) tumor cells; type: functional, cell-based
A-375 [3] = experiment: In vitro inhibitory concentration against cell proliferation in human A375 (malignant melanoma),tumor cells; type: functional, cell-based
[4] = biological target: Cyclin-dependent kinase 1/cyclin B (Homo sapiens, UniProt P06493); experiment: Inhibition of Cyclin B-cyclin-dependent kinase 1; type: protein-complex assay
[5] = Maximum plasma concentration after intravenous administration of 3 mg/kg in nude mice; type: ADME, organism-based; set-up: dose 3 mg/kg, route intravenous; settings: mouse
[6] = Area under concentration time curve after 3 mg/kg […] in nude mice; type: ADME, organism-based; set-up: dose 3 mg/kg; settings: mouse, in vivo
[7] = Maximum plasma concentration after intravenous administration of 3 mg/kg in rat; type: ADME, organism-based; set-up: dose 3 mg/kg, route intravenous
[8] = Bioavailability in rat after 30 mg/kg oral dose; type: ADME, organism-based; settings: in vivo, read-out: Bioavailabiility
[9] = Half life after intravenous administration of 1 mg/kg; type: ADME, organism-based, Canis lupus familiaris; set-up: dose 1 mg/kg, route intravenous; settings: dog, in vivo
[10] = biological target: Protein kinase C beta type (Homo sapiens, UniProt P05771); experiment: Inhibition of Protein kinase C- beta 2
MDA-MB-231 [11] = experiment: In vitro inhibitory concentration against cell proliferation in various human MDA-MB-231 (breast carcinoma) tumor cells; type: functional, cell-based
Mus musculus [12] = experiment: Mean day of survival after intraperitoneal administration of 100 mg/kg in mice; type: functional
[13] = Half life after oral administration of 10 mg/kg; type: ADME, organism-based, Canis lupus familiaris; set-up: dose 10 mg/kg, route oral; settings: dog, in vivo
[14] = Half life after oral administration of 30 mg/kg; type: ADME, organism-based; set-up: dose 30 mg/kg, route oral; settings: rat, in vivo
Mus musculus [15] = experiment: Mean day of survival after intraperitoneal administration of 75 mg/kg in mice; type: functional
[16] = Bioavailability in mouse (nude) (dose 30 mg/kg p.o.); type: ADME, organism-based; settings: in vivo, po
[17] = Inhibition of Protein kinase A
[18] = Area under concentration time curve after 30 mg/kg of oral dose in nude mice; type: ADME, organism-based; set-up: dose 30 mg/kg, route oral; settings: mouse, in vivo
[19] = Maximum plasma concentration after intravenous administration of 1 mg/kg in dog; type: ADME, organism-based, Canis lupus familiaris; set-up: dose 1 mg/kg, route intravenous
[20] = Area under concentration time curve after 30 mg/kg of oral dose in rat; type: ADME, organism-based; set-up: dose 30 mg/kg, route oral; settings: in vivo
[21] = Area under concentration time curve after 1 mg/kg of intravenous dose in dog; type: ADME, organism-based, Canis lupus familiaris; set-up: dose 1 mg/kg, route intravenous; settings: in vivo
[22] = Maximum plasma concentration after oral administration of 10 mg/kg in dog; type: ADME, organism-based, Canis lupus familiaris; set-up: dose 10 mg/kg, route oral
[23] = Maximum plasma concentration after oral administration of 30 mg/kg in nude mice; type: ADME, organism-based; set-up: dose 30 mg/kg, route oral; settings: mouse
[24] = Area under concentration time curve after 10 mg/kg of oral dose in dog; type: ADME, organism-based, Canis lupus familiaris; set-up: dose 10 mg/kg, route oral; settings: in vivo
[25] = Bioavailability in dog after 10 mg/kg oral dose; type: ADME, organism-based, Canis lupus familiaris; settings: in vivo, read-out: Bioavailabiility
[26] = Area under concentration time curve after 3 mg/kg […] in rat; type: ADME, organism-based; set-up: dose 3 mg/kg; settings: in vivo
[27] = Half life after intravenous administration of 3 mg/kg; type: ADME, organism-based; set-up: dose 3 mg/kg, route intravenous; settings: rat, in vivo
[28] = biological target: Fibroblast growth factor receptor 2 (Homo sapiens, UniProt P21802); experiment: Inhibition of Fibroblast growth factor receptor 2
[29] = Inhibition of Protein kinase-C alpha/gamma
[30] = Maximum plasma concentration after oral administration of 30 mg/kg in rat; type: ADME, organism-based; set-up: dose 30 mg/kg, route oral
Casein kinase II = Casein kinase II (Homo sapiens, UniProt P19784+P67870+P68400); experiment: Inhibition of Casein kinase-2; type: protein-complex assay
[31] = Inhibition of Platelet-derived growth factor receptor beta
[32] = biological target: Cyclin-dependent kinase 4/cyclin D1 (Homo sapiens, UniProt P11802); experiment: Inhibition of Cyclin-dependent kinase 4-cyclin D1; type: protein-complex assay
[33] = biological target: Glycogen synthase kinase-3 (Homo sapiens, UniProt P49840+P49841); experiment: Inhibition of Glycogen synthase kinase-3; type: protein assay
[34] = biological target: Cyclin-dependent kinase 2/cyclin A (Homo sapiens, UniProt P24941); experiment: Inhibition of Cyclin-dependent kinase 2-cyclin A; type: protein-complex assay
MDA-MB-231 [35] = experiment: In vitro inhibitory concentration against cell proliferation in human MDA-MB-231 (breast carcinoma) tumor cells; type: functional, cell-based
HeLa [36] = experiment: In vitro inhibitory concentration against cell proliferation in s human HeLa (cervical adenocarcinoma),tumor cells; type: functional, cell-based
[37] = biological target: Vascular endothelial growth factor receptor 2 (Homo sapiens, UniProt P35968); experiment: Inhibition of Vascular endothelial growth factor receptor 2
[38] = biological target: Mitogen-activated protein kinase; ERK1/ERK2 (Homo sapiens, UniProt P27361+P28482); experiment: Inhibition of Mitogen-activated protein kinase 1; type: protein assay
CaM kinase II = CaM kinase II (Homo sapiens, UniProt Q13557+Q13555+Q13554+Q9UQM7); experiment: Inhibition of [Ca(2+)]/calmodulin dependent kinase; type: protein assay
Casein kinase I = experiment: Inhibition of human casein kinase-1; type: protein assay

Sequence of Fibroblast growth factor receptor 2 (P21802 whole entry): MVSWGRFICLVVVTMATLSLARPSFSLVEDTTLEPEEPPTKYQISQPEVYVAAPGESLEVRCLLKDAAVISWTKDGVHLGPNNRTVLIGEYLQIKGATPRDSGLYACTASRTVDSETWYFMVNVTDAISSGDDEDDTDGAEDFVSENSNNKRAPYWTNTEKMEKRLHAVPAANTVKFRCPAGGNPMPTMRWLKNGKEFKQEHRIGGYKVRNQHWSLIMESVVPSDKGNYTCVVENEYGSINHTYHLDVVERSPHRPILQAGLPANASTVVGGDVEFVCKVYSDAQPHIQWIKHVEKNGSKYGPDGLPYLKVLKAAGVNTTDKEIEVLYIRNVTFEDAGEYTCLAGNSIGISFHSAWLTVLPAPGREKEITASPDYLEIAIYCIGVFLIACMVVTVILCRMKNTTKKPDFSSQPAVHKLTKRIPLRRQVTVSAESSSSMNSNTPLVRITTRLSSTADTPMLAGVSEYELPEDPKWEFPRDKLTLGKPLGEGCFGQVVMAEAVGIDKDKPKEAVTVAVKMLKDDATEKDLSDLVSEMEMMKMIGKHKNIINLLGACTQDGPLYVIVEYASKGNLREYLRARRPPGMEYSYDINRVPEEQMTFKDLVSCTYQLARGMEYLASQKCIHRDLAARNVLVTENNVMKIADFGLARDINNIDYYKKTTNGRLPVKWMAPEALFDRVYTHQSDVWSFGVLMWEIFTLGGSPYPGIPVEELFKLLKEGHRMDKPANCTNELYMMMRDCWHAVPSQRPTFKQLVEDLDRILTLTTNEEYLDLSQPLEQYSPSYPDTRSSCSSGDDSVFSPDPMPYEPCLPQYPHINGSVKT
Sequence of Protein kinase C beta type (P05771 whole entry): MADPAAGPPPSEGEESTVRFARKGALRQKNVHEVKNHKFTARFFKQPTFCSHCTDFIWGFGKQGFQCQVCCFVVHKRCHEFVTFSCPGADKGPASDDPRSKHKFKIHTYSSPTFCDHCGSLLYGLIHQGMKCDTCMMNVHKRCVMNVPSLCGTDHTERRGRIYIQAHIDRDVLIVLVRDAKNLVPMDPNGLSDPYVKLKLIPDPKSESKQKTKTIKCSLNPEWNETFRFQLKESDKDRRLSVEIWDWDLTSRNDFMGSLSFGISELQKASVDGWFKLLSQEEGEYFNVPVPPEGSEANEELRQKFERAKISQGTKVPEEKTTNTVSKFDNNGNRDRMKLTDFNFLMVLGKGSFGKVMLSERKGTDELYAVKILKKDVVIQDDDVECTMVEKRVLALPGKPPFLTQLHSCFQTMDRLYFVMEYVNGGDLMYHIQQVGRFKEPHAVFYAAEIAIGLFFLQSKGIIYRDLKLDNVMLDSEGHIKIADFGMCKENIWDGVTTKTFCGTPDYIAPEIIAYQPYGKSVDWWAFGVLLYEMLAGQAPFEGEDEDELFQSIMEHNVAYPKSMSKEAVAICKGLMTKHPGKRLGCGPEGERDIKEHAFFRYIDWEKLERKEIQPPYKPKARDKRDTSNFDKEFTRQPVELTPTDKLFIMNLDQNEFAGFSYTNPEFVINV
Sequence of Casein kinase II (P67870 whole entry): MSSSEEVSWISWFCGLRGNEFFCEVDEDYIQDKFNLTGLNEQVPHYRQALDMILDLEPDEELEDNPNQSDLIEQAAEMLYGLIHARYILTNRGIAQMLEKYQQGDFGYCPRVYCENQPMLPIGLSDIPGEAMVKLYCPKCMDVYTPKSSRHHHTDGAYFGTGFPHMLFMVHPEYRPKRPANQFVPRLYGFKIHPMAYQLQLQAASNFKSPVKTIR
Sequence of Casein kinase II (P68400 whole entry): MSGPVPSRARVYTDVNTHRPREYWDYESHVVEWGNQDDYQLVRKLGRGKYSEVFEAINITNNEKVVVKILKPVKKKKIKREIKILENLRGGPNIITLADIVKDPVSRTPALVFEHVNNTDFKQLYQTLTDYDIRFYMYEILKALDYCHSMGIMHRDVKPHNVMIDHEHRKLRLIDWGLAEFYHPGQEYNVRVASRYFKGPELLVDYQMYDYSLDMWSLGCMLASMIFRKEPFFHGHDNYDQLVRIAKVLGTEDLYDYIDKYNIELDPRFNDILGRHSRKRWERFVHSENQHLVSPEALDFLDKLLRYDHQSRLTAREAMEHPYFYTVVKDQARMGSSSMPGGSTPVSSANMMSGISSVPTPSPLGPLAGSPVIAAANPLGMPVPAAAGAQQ
Sequence of Casein kinase II (P19784 whole entry): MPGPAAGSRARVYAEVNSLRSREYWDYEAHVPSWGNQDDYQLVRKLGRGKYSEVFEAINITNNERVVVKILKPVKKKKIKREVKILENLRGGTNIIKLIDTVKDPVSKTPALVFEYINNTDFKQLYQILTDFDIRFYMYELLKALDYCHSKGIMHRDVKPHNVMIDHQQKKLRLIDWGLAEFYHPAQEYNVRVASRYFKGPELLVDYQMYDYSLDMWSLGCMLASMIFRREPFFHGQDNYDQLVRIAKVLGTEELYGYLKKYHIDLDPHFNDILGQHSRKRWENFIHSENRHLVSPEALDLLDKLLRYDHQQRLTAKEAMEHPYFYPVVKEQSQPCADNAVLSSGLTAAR
Sequence of Cyclin-dependent kinase 4/cyclin D1 (P11802 whole entry): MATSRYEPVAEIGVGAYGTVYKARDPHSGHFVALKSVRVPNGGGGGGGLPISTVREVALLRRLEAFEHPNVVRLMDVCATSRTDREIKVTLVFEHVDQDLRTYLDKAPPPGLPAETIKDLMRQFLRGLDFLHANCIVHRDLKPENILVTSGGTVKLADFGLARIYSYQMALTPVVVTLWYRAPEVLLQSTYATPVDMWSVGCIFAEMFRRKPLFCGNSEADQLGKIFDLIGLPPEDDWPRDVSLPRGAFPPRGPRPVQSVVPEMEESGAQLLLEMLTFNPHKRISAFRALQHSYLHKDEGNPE
Sequence of Cyclin-dependent kinase 4/cyclin D1 (P24385 whole entry, further chain): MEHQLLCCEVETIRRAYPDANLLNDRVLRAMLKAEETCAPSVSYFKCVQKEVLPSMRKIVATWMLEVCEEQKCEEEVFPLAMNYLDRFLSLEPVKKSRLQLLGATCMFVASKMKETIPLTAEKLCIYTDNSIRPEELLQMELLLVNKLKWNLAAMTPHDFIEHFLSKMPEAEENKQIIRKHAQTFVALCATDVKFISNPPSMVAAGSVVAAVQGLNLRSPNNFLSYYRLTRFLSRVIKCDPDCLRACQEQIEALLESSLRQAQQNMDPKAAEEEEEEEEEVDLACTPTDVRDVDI
Sequence of Vascular endothelial growth factor receptor 2 (P35968 whole entry): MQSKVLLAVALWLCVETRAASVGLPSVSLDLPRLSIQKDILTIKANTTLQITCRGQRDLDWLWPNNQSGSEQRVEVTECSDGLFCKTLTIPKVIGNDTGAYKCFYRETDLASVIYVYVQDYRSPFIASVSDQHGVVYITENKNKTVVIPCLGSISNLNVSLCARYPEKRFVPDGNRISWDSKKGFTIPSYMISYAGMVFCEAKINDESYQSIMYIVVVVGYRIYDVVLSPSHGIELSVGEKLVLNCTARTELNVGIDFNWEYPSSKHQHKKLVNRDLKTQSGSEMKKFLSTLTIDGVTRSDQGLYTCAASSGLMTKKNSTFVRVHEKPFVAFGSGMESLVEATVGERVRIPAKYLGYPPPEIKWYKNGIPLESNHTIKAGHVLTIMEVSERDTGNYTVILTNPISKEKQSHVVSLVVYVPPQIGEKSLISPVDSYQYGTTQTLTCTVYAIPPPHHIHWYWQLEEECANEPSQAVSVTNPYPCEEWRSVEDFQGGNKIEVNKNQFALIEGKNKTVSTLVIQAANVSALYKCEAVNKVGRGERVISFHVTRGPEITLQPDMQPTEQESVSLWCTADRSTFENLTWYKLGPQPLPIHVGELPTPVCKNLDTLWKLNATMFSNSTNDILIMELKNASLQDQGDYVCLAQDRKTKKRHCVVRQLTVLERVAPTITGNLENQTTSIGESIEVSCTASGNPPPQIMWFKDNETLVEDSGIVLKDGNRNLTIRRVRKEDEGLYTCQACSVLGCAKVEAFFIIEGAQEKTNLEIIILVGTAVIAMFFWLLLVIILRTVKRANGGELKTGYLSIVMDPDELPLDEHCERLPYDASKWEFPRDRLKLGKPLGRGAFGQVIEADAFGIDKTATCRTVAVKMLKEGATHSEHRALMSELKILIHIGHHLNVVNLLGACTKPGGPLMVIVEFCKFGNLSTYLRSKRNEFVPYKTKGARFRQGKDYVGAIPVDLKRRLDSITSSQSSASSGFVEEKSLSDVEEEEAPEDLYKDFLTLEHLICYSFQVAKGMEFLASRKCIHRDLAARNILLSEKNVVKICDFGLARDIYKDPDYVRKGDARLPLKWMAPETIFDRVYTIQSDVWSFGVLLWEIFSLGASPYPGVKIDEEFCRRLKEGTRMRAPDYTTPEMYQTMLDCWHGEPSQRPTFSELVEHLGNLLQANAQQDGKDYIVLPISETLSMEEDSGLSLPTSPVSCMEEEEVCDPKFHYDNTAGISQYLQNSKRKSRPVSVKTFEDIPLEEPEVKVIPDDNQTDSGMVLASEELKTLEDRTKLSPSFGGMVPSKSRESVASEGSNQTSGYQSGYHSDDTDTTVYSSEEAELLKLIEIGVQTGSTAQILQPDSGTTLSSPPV

IC50 (PC-3): 370 nM
IC50 (HeLa [1]): 260 nM
IC50 (HCT-116): 210 nM
IC50 (SK-OV-3): 2100 nM
IC50 (A-375 [2]): 940 nM
Structure (SMILES): Nc1nc(Nc2ccc(S(N)(=O)=O)cc2)nn1C(=O)c1sccc1F

IC50 (HeLa [1]): 28500 nM
IC50 (A-375 [3]): > 10000 nM
IC50 (HCT-116): 4100 nM
IC50 [4]: 2100 nM
Structure (SMILES): Cc1ccc(F)c(C(=O)n2nc(N)nc2Nc2ccc(S(N)(=O)=O)cc2)c1F

Structure (SMILES): Nc1nc(Nc2ccc(S(N)(=O)=O)cc2)nn1C(=O)c1c(F)cccc1F [JNJ-7706621]
Cmax [5]: 6400 nM
AUC [6]: 3.2 µM·h
Cmax [7]: 23200 nM
bioavailability [8]: 8%
half-life [9]: 3.89 h
IC50 [10]: > 100000 nM
IC50 (MDA-MB-231 [11]): 590 nM
IC50 (PC-3): 120 nM
Mean day survival (Mus musculus [12]): 50.1 days
half-life [13]: 2.36 h
T1/2 [14]: 2.2 h and 1.7 h
Mean day survival (Mus musculus [15]): 48.5 days
bioavailability [16]: 2%
IC50 (SK-OV-3): 750 nM
IC50 [17]: > 100000 nM
AUC [18]: 0.74 µM·h
Cmax [19]: 2190 nM
AUC [20]: 9.5 µM·h
AUC [21]: 2.45 µM·h
Cmax [22]: 4580 nM
Cmax [23]: 210 nM
AUC [24]: 15.5 µM·h
bioavailability [25]: 63.3%
AUC [26]: 11.4 µM·h
T1/2 [27]: 0.64 h
half-life [27]: 0.51 h
IC50 [28]: 220 nM
IC50 [29]: 30100 nM
Cmax [30]: 2500 nM

Structure (SMILES): Nc1nc(Nc2ccc(S(N)(=O)=O)cc2)nn1C(=S)Nc1c(F)cccc1F
IC50 (Casein kinase II): > 100000 nM
IC50 (HeLa [1]): 35 nM
IC50 (A-375 [3]): 92 nM
IC50 [31]: 1600 nM
IC50 (HCT-116): 20 nM

IC50 [4]: > 100000 nM
Structure (SMILES): Nc1nc(Nc2ccc(S(N)(=O)=O)cc2)nn1Cc1c(F)cccc1F

Structure (SMILES): Cc1ccsc1C(=O)n1nc(Nc2ccc(S(N)(=O)=O)cc2)nc1N
IC50 (Casein kinase II): > 100000 nM
IC50 [10]: > 100000 nM
IC50 (PC-3): 110 nM
IC50 (HeLa [1]): 91 nM
IC50 (A-375 [3]): 250 nM
IC50 [32]: 120 nM
IC50 [31]: 310 nM
IC50 (HCT-116): 130 nM
IC50 [33]: 26 nM
IC50 [28]: 180 nM
IC50 [34]: 0.4 nM
IC50 [29]: > 100000 nM

IC50 (MDA-MB-231 [11]): 760 nM
IC50 (PC-3): 160 nM
IC50 (HeLa [1]): 550 nM
IC50 (A-375 [3]): 2600 nM
IC50 (HCT-116): 1900 nM
IC50 (SK-OV-3): 730 nM
Structure (SMILES): Nc1nc(Nc2ccc(S(N)(=O)=O)cc2)nn1C(=O)c1cccs1

Structure (SMILES): Cc1cc(C)c(C(=O)n2nc(Nc3ccc(S(N)(=O)=O)cc3)nc2N)s1
IC50 (PC-3): 37 nM
IC50 (HeLa [1]): 72 nM
IC50 (MDA-MB-231 [35]): 170 nM
IC50 (HCT-116): 270 nM

IC50 [4]: 660 nM
Structure (SMILES): N[n+]1nc(Nc2ccc(S(N)(=O)=O)cc2)nn1S(=O)(=O)c1c(F)cccc1F

IC50 (HeLa [1]): 130 nM
IC50 (A-375 [3]): 970 nM
IC50 (HCT-116): 910 nM
Structure (SMILES): Nc1nc(Nc2ccc(S(N)(=O)=O)cc2)n(C(=S)c2c(F)cccc2F)n1

IC50 (HeLa [36]): 3730 nM
IC50 (A-375 [3]): 48300 nM
IC50 (HCT-116): 4700 nM
Structure (SMILES): Nc1nc(Nc2ccc(S(N)(=O)=O)cc2)nn1C(=O)Nc1c(F)cccc1F

IC50 (HeLa [1]): 220 nM
IC50 [4]: 3.2 nM
IC50 (SK-OV-3): 1600 nM
Structure (SMILES): Cc1nc(Nc2ccc(S(N)(=O)=O)cc2)nn1C(=O)c1c(F)ccc(F)c1F

IC50 (HeLa [1]): 140 nM
IC50 [4]: 130 nM
Structure (SMILES): CN(C)CCNS(=O)(=O)c1ccc(Nc2nc(N)n(C(=O)c3c(F)cccc3F)n2)cc1

Cmax [5]: 330 nM
AUC [6]: 0.27 µM·h
IC50 (Casein kinase II): > 100000 nM
IC50 [10]: > 100000 nM
IC50 [37]: 510 nM
IC50 (PC-3): 160 nM
IC50 (HeLa [1]): 370 nM
half-life [14]: 2.29 h
IC50 [32]: 190 nM
IC50 [38]: 9500 nM
bioavailability [16]: 20.6%
IC50 (CaM kinase II): > 100000 nM
IC50 (HCT-116): 880 nM
IC50 [4]: 8 nM and 3 nM
IC50 (SK-OV-3): 220 nM
IC50 [17]: > 100000 nM
AUC [18]: 0.55 µM·h
IC50 (Casein kinase I): > 100000 nM
Cmax [23]: 430 nM
IC50 [33]: 31 nM
half-life [27]: 1.94 h
IC50 [28]: 270 nM
IC50 [34]: 0.3 nM
IC50 [29]: > 100000 nM
Structure (SMILES): Cc1ccc(F)c(C(=O)n2nc(Nc3ccc(S(N)(=O)=O)cc3)nc2C)c1F
IC50 [31]: 10700 nM
